In the experiment the test system is peripheral microvascular endothelial function. The experiment can be described thus: PAT with reactive hyperemia after L-NMMA infusion followed by cocoa beverage. In kind it is in vivo, human. The procedure:
Peripheral arterial tonometry (PAT) measurements were taken of three volunteers according to the following study. This is a non-invasive technique for examining peripheral microvascular endothelial function. Microvascular endothelial function is assessed by the direct measurement of changes in digital (finger) pulse volume following reactive hyperemia.
On study days, the subjects reported in a fasted state between 7:30 and 9:00 a.m. Body weight, resting heart rate, and blood pressure were all re-measured. […] Subjects then lied down on their backs to acclimatize to ambient conditions. After 30 minutes, a non-invasive, sterile, single-use finger probe was fitted to a finger and a baseline PAT reading was taken and recorded for 10 minutes. The subjects were then subjected to a reactive hyperemia procedure (“RH”) which consisted of a period of blood flow occlusion to the measurement arm using an upper arm blood pressure cuff, pressurized to achieve a supra-systolic level (equivalent to about 60 mm mercury above systolic blood pressure) for 5 minutes. Then the cuff was released and the data recorded for another five minutes. Following this first reading, subjects drank 3 bottles of Cocoa Drink A (total 483 mg). Over the next six hours, the PAT response was monitored at two, four and six hours.
The infusion of L-NMMA occurred over 30 minutes (1mg/kg/min for the first 3 minutes and then 0.2 mg/kg/min for the next 27 minutes). Following infusion of the L-NMMA, 3 bottles of the beverage were fed (483 mg) per subject. Readings were done for baseline, after infusion of L-NMMA and after consumption of cocoa.
Referring to Table 1, RH indicates PAT value following a reactive hyperemia procedure; “baseline” refers to baseline reading prior to occlusion period.
The data supports an NO-independent mechanism of action of the compounds described herein. […] This indicates the blood flow was affected via an NO-independent mechanism. Peripheral blood flow/vasodilation is a function of both NO and NO-independent vasodilators. The endothelium derived NO is one of the most important mediators of vascular tone; however, NO is not the only compound regulating vascular tone. As such, being able to operate via NO-independent mechanisms means that the compound of the invention can exert important vasodilatory effects on the microvasculature which are independent of an intact endothelium. If the endothelium is compromised in any way and simply cannot produce enough NO, the fact that the compounds of the invention act in an endothelium independent fashion offers greater therapeutic benefits, which was previously unexpected.

[1] abbreviates: Subject #1, Day 11, after 30 min intravenous infusion of L-NMMA.
Setting [2] is: Subject #5, Day 10, after 30 min intravenous infusion of L-NMMA.
Setting [3] is: Subject #6, Day 11, after 30 min intravenous infusion of L-NMMA.

As to `CNC(=N)NCCC[C@H](N)C(=O)O` [LNMMA], the “Baseline (baseline PAT reading prior to occlusion period)” value was 616 under setting [1], 689 under setting [2] and 597 under setting [3]. Also, the “RH (PAT value following a reactive hyperemia procedure)” value is listed as 1.61 under setting [1], 1.42 under setting [2] and 1.75 under setting [3]. For the setting “all three subjects, after L-NMMA infusion”, the “change in the RH value” is reported as “dramatic reduction”.

(Values after patent US20070037872A1, “Inducing peripheral blood vesel vasodilation” (Mars, Incorporated, priority 2005, published 2007).)
